Literature values in patent US7585955B2, “Protein separation from a protein mixture” (Florida State University Research Foundation, Inc, priority 2005, dated 2009).

Settings: for pKa1 / pKa2: polyprotic buffer component

pKa	pKa1	pKa2	Compound
about 3.80			CC(O)C(=O)O (centres unmarked) [lactic acid]
about 2.80			N=C(N)NCC(=O)O [glycocyamine]
	about 9.70	about 8.60	NC[C@H](O)c1ccc(O)c(O)c1 [noradrenaline]
about 2.80			O=C(O)c1cncc(C(=O)O)c1 [dinicotinic acid]
about 3.98			O=C(O)CCCl [3-chloropropanoic acid]
	about 5.60	about 4.70	O=C(O)CCCCCC(=O)O [heptanedioic acid]
about 3.70			CC(=O)NCC(=O)O [N-acetylglycine]
about 3.60			CC(=O)CC(=O)O [acetoacetic acid]
about 9.90			CN(C)CC(=O)O [N,N-dimethylglycine]

Continued, compound first:

Compound	pKa	pKa1	pKa2
Clc1cnc2ncncc2n1 [6-chloropteridine]	about 3.70		
CCNc1ccccc1 [N-ethylaniline]	about 5.10		
Nc1nccs1 [thiazolamine]	about 5.30		
chloroaniline	about 2.80		
Oc1ccc2ccncc2c1 [7-isoquinolinol]		about 8.90	about 5.70
Cc1ccc2ccccc2n1 [2-methylquinoline]	about 5.80		
CC(N)CN (centres unmarked) [1,2-propanediamine]		about 9.80	about 6.60
CN(C)C [trimethylamine]	about 9.80		
Cc1ccnc2ccccc12 [4-methylquinoline]	about 5.70		
NCCc1c[nH]cn1 [histamine]		about 9.80	about 6.00
Nc1ccc(N=Nc2ccccc2)cc1 [4-aminoazobenzene]	about 2.82		
O=c1[nH]c(=O)c2[nH]c(=O)[nH]c2[nH]1 [uric acid]	about 3.90		
Cc1cccc2ncccc12 [5-methylquinoline]	about 5.20		
c1ccc2cnccc2c1 [isoquinoline]	about 5.40		
c1ccc2nc3ccccc3cc2c1 [acridine]	about 5.60		
